Residue numbers refer to the chain shown, from its start. Read-outs that look alike come from different tables or passages of the source.
Legend:
[1] = biological target: T1, human muscarinic M3 receptors (Homo sapiens, UniProt P20309); test: Stimulation of inositol phosphate production in A9L cells, human M3 (IPOne TR-FRET); type: cell-based
T1 construct: host or cells: A9L cells
Method: (§1) Muscarinic M1 and M3 agonist activity was evaluated by measuring the stimulation of inositol phosphate (IP) production in the presence of lithium chloride from A9L cells transfected with expression plasmids containing human muscarinic M1 and M3 receptors, respectively. The cell lines were a gift from Professor W Messer, and the methods were as described in Tejada F R et al. J. Med. Chem. 2006; 49: 7518-31 except that the assay was scaled down to run in 384 well plates, and IP was measured in the cell lysates using the non-isotopic IPOne TR-FRET assay (CIS-BIO, Inc).
(§2) Cells were grown to 90% confluence in 384 well hi-base plates (Greiner Bio-One), compounds were added at suitable concentrations in growth medium containing 10 mM LiCL, buffered with an extra 10 mM HEPES (pH7.4), and incubated for 60 minutes at 37° C. Cells were lysed and assayed for IP following the manufacturer's instructions.
(§3) The value for a full agonist is 100%, while partial agonists give values below 100%.

[2] = biological target: T2, human muscarinic M1 receptors (Homo sapiens, UniProt P11229); test: Stimulation of inositol phosphate production in A9L cells, human M1 (IPOne TR-FRET); type: cell-based
T2 construct: host or cells: A9L cells
T2 sequence (P11229 1-460): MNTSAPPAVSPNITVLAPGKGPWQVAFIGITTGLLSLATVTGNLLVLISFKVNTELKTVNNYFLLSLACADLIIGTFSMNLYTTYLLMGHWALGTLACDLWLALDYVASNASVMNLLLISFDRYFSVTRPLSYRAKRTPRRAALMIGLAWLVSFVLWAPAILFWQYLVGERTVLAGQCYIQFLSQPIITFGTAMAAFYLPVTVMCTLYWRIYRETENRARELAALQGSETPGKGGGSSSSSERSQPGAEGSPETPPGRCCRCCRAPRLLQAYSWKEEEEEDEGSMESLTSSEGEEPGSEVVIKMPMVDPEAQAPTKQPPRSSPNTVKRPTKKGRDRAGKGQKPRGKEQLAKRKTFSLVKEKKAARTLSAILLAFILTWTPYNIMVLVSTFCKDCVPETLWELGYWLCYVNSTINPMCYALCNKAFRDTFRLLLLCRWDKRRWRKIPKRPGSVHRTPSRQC
Method: as §1, §2, §3

A-beta = A-beta in hippocampal microdialysate of Tg-2576 transgenic mice; type: in vivo, mouse; details: single dose
From the text: These mice have high concentrations of A-beta in their brain tissue, thought to be the cause of neuron death in Alzheimer's disease, and accumulate amyloid plaques, recapitulating one of the hallmark pathological features of Alzheimer's disease.

[3] = test system: pooled male human liver microsomes; test: Metabolism by human liver microsomes; type: in vitro ADME; details: 6 hours incubation
Method: Compounds were incubated with pooled male human liver microsomes (BD Biosciences, #452172) and an NADP-regenerating system in a phosphate buffer (pH 7.4) for a total of 6 hours. Aliquots were removed every 2 hours, and 1% formic acid was added to halt the reaction. Samples were centrifuged, filtered through 0.2 micron spinfilter and the amount of each compound in the supernatants was quantitated using LC/MS/MS.

Long Evans Hooded rats = test: In vivo measurement of salivation; design: species or system rat
Method: Suitable doses of test compounds or drug substances were administered using standard techniques to Long Evans Hooded rats weighing 225 to 350 grams, or CD-1 mice weighing 30 to 50 grams, which had been anesthetized using 2-3.5%% of isoflurane in oxygen. The animals were placed slightly head-down on an inclined, heated ramp. Rectal temperature was monitored using a thermocouple and the temperature of the heating pad was adjusted manually to maintain normal body temperature. Saliva was collected from the mouth by absorption onto pre-weighed slips of filter paper. The filter paper was changed periodically and the amount of saliva was measured by weighing the filter paper slips.

CD-I mice = test: Apomorphine induced climbing model of psychosis; type: in vivo, mouse
Method: As described in Costall et. al. European Journal of Pharmacology 1978, 50, 39. individual CD-I mice, 1-2 months old, were placed in a cylindrical wire mesh cage (13.2 cm high×13.2 cm diameter) constructed of steel wire 1 mm thick spaced at 1.2 cm^2. Cylinders were placed in a standard OptiMICE mouse cage (29×32×9×29 cm wide and 14 cm high) with adequate wood chip bedding provided. Observations of climbing (defined as 3 or more paws off the ground) were carried out every 5 minutes at a duration of 1 minute for 30 minutes. Animals were injected subcutaneously under isoflurane anesthesia with test compounds, reference compounds, which included clozapine, haloperidol, olanzapine and xanomeline, or PBS as a control. This was followed 5 minutes later by 2 mg/kg apomorphine hydrochloride. All drugs were dissolved in PBS or a mixture of (by volume) 96% PBS and 4% hydroxypropyl-beta-cyclodextrin, and dosed at a rate of 5 ml per kilogram of body weight. Following injections, animals were replaced in the mesh cages and observed for climbing (defined as 3 or more paws off the ground) every 5 minutes for a duration of 1 minute for 60 minutes after dosing.

[4] = test system: inositol phosphate signaling pathway; test: In vivo measurement of tissue inositol phosphate signaling pathway activation (hippocampus, salivary gland); details: rat, Compound 3 1 mg/kg
Method: Experimental compounds or drug substances were administered using standard techniques to Long Evans Hooded rats weighing 225 to 350 grams, and which had been pretreated with a subcutaneous injection of lithium chloride at a suitable dose between 3 and 10 mmoles per kg. At suitable times the animals were briefly anesthetized using 5% isoflurane and euthanized by decapitation. The brains and submaxillary salivary glands were rapidly dissected out, and the hippocampuses were dissected from the brains. The dissected tissues were homogenized in a suitable volume of ice-cold phosphate-buffered saline containing 10 mM lithium chloride, pH7.4, using a tissue homogenizer, and used immediately or frozen in aliquots at −80 degC for future use. The concentration of inositol-1-phosphate was determined in the homogenates using the IPOne TR-FRET assay (CisBio cat no 621PAPEB), following the manufacturer's instruction

rats [5] = test: Salivation after transdermal iontophoretic co-delivery of agonist and antagonist from one patch; type: in vivo, rat; details: anesthetized rats, device with 1 mg Compound 3 plus 0.01 mg antagonist
Method: Experimental compounds and drug substances were delivered transdermally in rats using iontophoresis as follows. The fur was shaved from the backs of Long Evans Hooded rats weighing 225 to 325 grams, using electric clippers. Experimental compounds and drug substances were formulated at suitable concentrations an aqueous mixture of the following composition:
The polyvinyl alcohol/water was heated to 95 degC until it became clear, then the other constituents were added and mixed well. The mixture was introduced into suitable molds containing a disc-shaped cavity 2.2 cm diameter and 2.2 mm deep. Molds may be fabricated using two glass sheets separated by a silicone rubber sheet with suitable sized cavities and filling ports cut-outs. The molds were subject to 3 freeze-thaw cycles at −80 degC and 20 degC until a firm cryogel was obtained. The gels were separated from the molds and trimmed into a circular shape. The gel was placed in a silicone rubber casing with one face in contact with a circular silver foil anodic electrode (22 mm dia/250 microns thick), and the assembly was placed on the shaved skin of the rat such that the other face was in contact with the skin on one side of the back of the rat. The rubber casing formed a seal over and around the gel/electrode assembly. […] This was placed on the other side of the shaved back of the rat, the edges of the gel discs being about 20 mm apart at their nearest point. A DC voltage was applied across the two patches from a constant-current DC power supply and the voltage adjusted to obtain the desired current, such that the skin of the animal completed the electrical circuit.
The devices were placed on shaved backs of anesthetized rats and salivation was measured.
The animals were placed slightly head-down on an inclined, heated ramp. Rectal temperature was monitored using a thermocouple and the temperature of the heating pad was adjusted manually to maintain normal body temperature. Saliva was collected from the mouth by absorption onto pre-weighed slips of filter paper. The filter paper was changed periodically and the amount of saliva was measured by weighing the filter paper slips.

rats [6] = test: Muscarinic effects in vivo (salivary flow) in rats dosed orally; design: species or system rat; details: rats, dosed orally
rat M1 receptors = biological target: T3, rat M1 receptors (Rattus norvegicus, UniProt P08482); test: PI turnover (inositol phosphate production) in M1-CHO cells; type: cell-based
T3 construct: host or cells: Chinese Hamster Ovary cells (M1-CHO)
T3 sequence (P08482 1-460): T2 sequence (P11229 1-460) with A5V, T254S, P309S, R320K, A337G, I413V
Method: (§4) The medium was changed to 70 μL/well of inositol-free DMEM containing 2 mM glutamine, 10% FBS and 10 μCi/ml of [3H]-inositol (PE:cat #NET114A250UC), incubated overnight as above, then 100 μL of a solution of the test compound in HBSS containing 10 mM LiCl and 20 mM HEPES, pH 7.4 was added, incubation was continued for 60 min under the above conditions, and the test was stopped by removing the test compound and replacing with 100 μL of 50 mM formic acid in water at 4° C.

rat M3 receptors = biological target: T4, rat M3 receptors (Rattus norvegicus, UniProt P08483); test: PI turnover (inositol phosphate production) in M3-CHO cells; type: cell-based; details: mean Smax relative to mean Smax for carbachol (100)
T4 construct: host or cells: Chinese Hamster Ovary cells (M3-CHO)
T4 sequence (P08483 whole entry): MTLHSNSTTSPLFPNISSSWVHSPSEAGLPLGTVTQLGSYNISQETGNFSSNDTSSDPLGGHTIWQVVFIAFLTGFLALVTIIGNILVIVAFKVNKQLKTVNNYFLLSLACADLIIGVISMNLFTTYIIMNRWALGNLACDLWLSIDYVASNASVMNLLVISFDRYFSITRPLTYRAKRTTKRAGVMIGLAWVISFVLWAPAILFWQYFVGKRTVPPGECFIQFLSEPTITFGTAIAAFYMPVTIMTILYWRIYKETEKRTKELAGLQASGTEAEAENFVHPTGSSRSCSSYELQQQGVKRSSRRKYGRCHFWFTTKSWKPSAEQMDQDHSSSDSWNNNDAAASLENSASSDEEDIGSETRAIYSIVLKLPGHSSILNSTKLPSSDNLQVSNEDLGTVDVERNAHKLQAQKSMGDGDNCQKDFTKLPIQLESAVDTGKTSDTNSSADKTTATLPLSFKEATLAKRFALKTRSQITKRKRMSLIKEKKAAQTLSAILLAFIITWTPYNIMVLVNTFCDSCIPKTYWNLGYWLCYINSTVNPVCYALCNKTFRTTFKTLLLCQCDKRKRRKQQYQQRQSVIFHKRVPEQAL
Method: as §4

[7] = potency class relative to carbachol

T1 sequence (P20309 whole entry): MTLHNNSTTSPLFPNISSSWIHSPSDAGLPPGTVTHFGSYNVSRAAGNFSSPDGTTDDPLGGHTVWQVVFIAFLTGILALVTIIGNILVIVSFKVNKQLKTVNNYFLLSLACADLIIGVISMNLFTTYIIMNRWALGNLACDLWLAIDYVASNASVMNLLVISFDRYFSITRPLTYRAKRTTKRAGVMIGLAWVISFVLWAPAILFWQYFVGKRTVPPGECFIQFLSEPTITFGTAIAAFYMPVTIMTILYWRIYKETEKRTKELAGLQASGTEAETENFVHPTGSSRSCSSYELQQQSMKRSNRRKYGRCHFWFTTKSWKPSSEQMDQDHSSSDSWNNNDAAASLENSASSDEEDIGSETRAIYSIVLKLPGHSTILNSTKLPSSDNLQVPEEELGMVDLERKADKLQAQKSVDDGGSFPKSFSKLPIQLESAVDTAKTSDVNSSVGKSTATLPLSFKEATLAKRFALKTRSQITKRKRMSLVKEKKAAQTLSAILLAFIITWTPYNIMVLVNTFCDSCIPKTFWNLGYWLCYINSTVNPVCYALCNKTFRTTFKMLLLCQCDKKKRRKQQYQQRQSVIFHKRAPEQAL

In the case of `CNC(=C[N+](=O)[O-])NCCSCc1ccc(CN(C)C)o1` [Ranitidine], the PAMPA units is reported as 0.26.
In the case of `Cc1noc(C2(F)CCCNC2)n1` (stereo not drawn) [Compound 35, 5-(3-fluoropiperidin-3-yl)-3-methyl-1,2,4-oxadiazole], the PAMPA units (PAMPA test) is reported as 16.3, the “huM3/A9L ED50 relative to CCh” value [1, 7] is reported as “−− (potency < 0.1x CCh)” and the “huM1/A9L ED50 relative to CCh” value [2, 7] is reported as “− (potency < 0.5-0.1x CCh)”.
With `Cc1noc(C2CN3CCC2CC3)n1` (stereo not drawn) [Compound 37, 3-methyl-5-(quinuclidin-3-yl)-1,2,4-oxadiazole, reference compound] the PAMPA units (PAMPA test) was 3.02, the “huM3/A9L ED50 relative to CCh” value [1] was “++ (key: ++: potency > 10x CCh; +: potency 2-10x CCh; +/−: potency 0.5-2x CCh; −: potency < 0.5-0.1x CCh; −−: potency < 0.1x CCh; inactive: potency too low to determine)” and the “huM1/A9L ED50 relative to CCh” value [2] was “++ (key: ++: potency > 10x CCh; +: potency 2-10x CCh; +/−: potency 0.5-2x CCh; −: potency < 0.5-0.1x CCh; −−: potency < 0.1x CCh; inactive: potency too low to determine)”. For the same molecule, the “Potency and efficacy at M1 muscarinic receptors” value ([2]; Table 12) was “highly potent” and the “Selectivity for M1 versus M3 receptors” value ([2]; huM1/A9L versus huM3/A9L) was “essentially non-selective between M1 and M3 receptors”.
Work on `Clc1cccc(Cl)c1N=C1NCCN1` [Clonidine] yielded a PAMPA units of 7.95.
For `Cc1noc(C2CCCNC2)n1` (racemic) [compound 3, 3-Methyl-5-(piperidin-3-yl)-1,2,4-oxadiazole], the “Reduction of concentration of A-beta 1-40 in hippocampal microdialysate” value (A-beta) was “approximately 40%”, the “Reduction of concentration of A-beta 1-42 in hippocampal microdialysate” value (A-beta) was “approximately 40%” and the “Metabolism in human liver microsomes” value [3] was “metabolized significantly less in human liver microsomes than in rat liver microsomes”. For the same molecule, the Salivation (Long Evans Hooded rats; anesthetized normal rats, dose-dependent between about 0.1 mg/kg and 1 mg/kg) was “causes salivation”, the “huM3/A9L ED50 relative to CCh” value [1] was “+/− (key: ++: potency > 10x CCh; +: potency 2-10x CCh; +/−: potency 0.5-2x CCh; −: potency < 0.5-0.1x CCh; −−: potency < 0.1x CCh; inactive: potency too low to determine)” and the “Climbing Mean (secs)” value (CD-I mice; Cmpd 3 + APO + N-Methyl Scopolamine 0.3 mg/kg) was “unaffected by N-methylscopolamine”. For the same molecule, the “Climbing Mean (secs)” value (CD-I mice; Cmpd 3 + APO + scopolamine 0.3 mg/kg) was “inhibited by scopolamine”, the “Potency in inhibiting climbing relative to reference antipsychotic” value (CD-I mice; sc) was “equipotent to haloperidol” and the “huM1/A9L ED50 relative to CCh” value [2] was “+ (key: ++: potency > 10x CCh; +: potency 2-10x CCh; +/−: potency 0.5-2x CCh; −: potency < 0.5-0.1x CCh; −−: potency < 0.1x CCh; inactive: potency too low to determine)”. It also gave a PAMPA units of 2.56.
In the case of `C[N+]1(C)[C@@H]2C[C@@H](OC(=O)[C@H](CO)c3ccccc3)C[C@H]1[C@@H]1O[C@@H]12` [NMS, N-methylscopolamine], the “Decrease in salivation caused by Compound 3” value (Long Evans Hooded rats; Compound 3 0.3 mg/kg) is reported as “dose-dependent decrease in salivation”, the “Block of increase in salivary gland inositol phosphate caused by Compound 3” value (“Block of increase” below) ([4]; antagonist 0.003 mg/kg) is reported as “some breakthrough activation” and the “Block of increase” value ([4]; antagonist 0.03 mg/kg to 0.01 mg/kg) is reported as “nearly as effective as 0.1 mg/kg”. The “Block of increase” value ([4]; antagonist 0.1 mg/kg) was “completely block”, the “Inhibition of increase in hippocampal inositol phosphate caused by Compound 3” value ([4]; antagonist 0.1 mg/kg) was “does not inhibit” and the “Reduction of salivation caused by transdermal iontophoretic delivery of Compound 3” value (rats [5]) was “greatly reduced”.
For `Cl.[2H]C([2H])([2H])c1noc(C2CN=CNC2)n1` (stereo not drawn) [compound 4, 3-(d3-methyl)-5-(1,4,5,6-tetrahydropyrimidin-5-yl)-1,2,4-oxadiazole hydrochloride], the Salivary flow (rats [6]) was “copious salivary flow, which was relatively short-lived”, the “Functional selectivity for M1 subtype by PI turnover” value (rat M1 receptors; M1 versus M3 cell lines) was “not selective for the M1 subtype” and the “Muscarinic agonist activity by PI turnover” value (rat M1 receptors; cell lines expressing M1 and M3 subtypes) was “near full-agonist”. For the same molecule, the “M3/CHO PI turnover Relative Mean Smax” value (rat M3 receptors) was 92.6.

Reference: US8853219B2, “Compounds and compositions for cognition-enhancement, methods of making, and methods of treating” (NeuroSolis, Inc., priority 2010, dated 2014)
